ChEMBL document CHEMBL4334505, “Tri- and Diterpenoids from Stillingia loranthacea as Inhibitors of Zika Virus Replication” (J Nat Prod, 2019)
Activity calls are given as the source filed them. The calls are words filed in the database; no cut-off is given here.

How the values were obtained:
Vero [1] = test: (§1) Cytotoxicity against African green monkey Vero cells assessed as reduction in cell viability measured after 1 hr by MTT assay; type: cell-based; conditions: chlorocebus sabaeus, vero, 1 h
[2] = as §1; type: cell-based; conditions: chlorocebus sabaeus, Vero cells
Zika virus [3] = test: Antiviral activity against Zika virus PE243 infected in African green monkey Vero cells assessed as reduction in viral replication by measuring viral titer per ml of cells at CC20 incubated for 5 days by standard TCID50 method (reference value: 6.7); type: functional
Zika virus [4] = test: Antiviral activity against Zika virus PE243 infected in African green monkey Vero cells assessed as reduction in viral replication by measuring viral titer at CC20 incubated for 5 days by standard TCID50 method; type: functional, organism-based
[5] = (§2) Cytotoxicity against African green monkey Vero cells assessed as reduction in cell viability measured after 120 hrs by MTT assay; type: cell-based; conditions: chlorocebus sabaeus, Vero cells
Vero [6] = test: as §2; type: cell-based; conditions: chlorocebus sabaeus, vero, 120 h

| Structure (SMILES) | CC20 (Vero [1]) [µM] | CC50 at 1 h [2] [µM] | log10 TCID50 (Zika virus [3]) | inhibition (Zika virus [4]) | CC50 at 120 h [5] [µM] | CC20 (Vero [6]) [µM] |
| --- | --- | --- | --- | --- | --- | --- |
| CC/C(C)=C/C(=O)O[C@@H]1[C@H](C)C[C@H]2O[C@]1(O)[C@@H](O)[C@@]1(C)CC[C@H](O1)C(C)(C)/C=C/[C@H](C)C2=O | 8.7 to 328 | – | – | – | – | – |
| CC1(C)CC[C@@H]2C(=O)C=C3[C@]4(C)CC[C@@H]5[C@](C)(CC[C@@H](OC(=O)/C=C/c6ccccc6)[C@@]5(C)C(=O)O)[C@H]4CC[C@@]3(C)[C@@H]2C1 | 8.7 to 328 | 24.6 to 848 | 1.7 | Active | – | – |
| CCCCCCCCCCCCCCCC(=O)O[C@@H]1[C@@H](C)[C@]2(O)[C@@H]3C=C(C)C(=O)[C@@H]3CC(CO)=C[C@H]2[C@@H]2C(C)(C)[C@]12OC(C)=O | 8.7 to 328 | 24.6 to 848 | – | Active | – | – |
| C/C(=C\C(=O)O[C@@H]1[C@H](C)C[C@H]2O[C@]1(O)[C@@H](O)[C@@]1(C)CC[C@H](O1)C(C)(C)/C=C/[C@H](C)C2=O)C(C)O (stereo partly specified) | 8.7 to 328 | – | – | – | – | – |
| CCCCCCCC/C=C\CCCC(=O)O[C@@]12C[C@@H](C)[C@@]3(O)[C@@H](C=C(CO)C[C@]4(O)C(=O)C(C)=C[C@@H]34)[C@@H]1C2(C)C | 8.7 to 328 | 24.6 to 848 | 1.8 | Active | – | – |
| CC(=O)O[C@H](C)/C(C)=C/C(=O)O[C@@H]1[C@H](C)C[C@H]2O[C@]1(O)[C@@H](O)[C@@]1(C)CC[C@H](O1)C(C)(C)/C=C/[C@H](C)C2=O | 8.7 to 328 | – | – | – | – | – |
| CCCCCCCC/C=C\CCCC(=O)O[C@@]12C[C@@H](C)[C@@]3(O)[C@@H](C=C(C=O)C[C@]4(O)C(=O)C(C)=C[C@@H]34)[C@@H]1C2(C)C | 8.7 to 328 | 24.6 to 848 | – | – | – | – |
| CCCCCCCCCCCCCC(=O)O[C@@]12C[C@@H](C)[C@@]3(O)[C@@H](C=C(CO)C[C@]4(O)C(=O)C(C)=C[C@@H]34)[C@@H]1C2(C)C | 8.7 to 328 | 24.6 to 848 | – | Active | – | – |
| CC1(C)CC[C@@H]2C(=O)C=C3[C@]4(C)CC[C@@H]5[C@](C)(CC[C@@H](OC(=O)c6ccccc6)[C@@]5(C)C(=O)O)[C@H]4CC[C@@]3(C)[C@@H]2C1 | 8.7 to 328 | 24.6 to 848 | – | – | – | – |
| CSc1ncnc2c1ncn2[C@@H]1O[C@H](CO)[C@@H](O)[C@H]1O | – | – | 5.4 | – | 291 | 60.5 |
| CCCCCCCCCCCCCCCC(=O)O[C@@H]1[C@@H](C)[C@]2(O)[C@@H]3C=C(C)C(=O)[C@@H]3CC(C=O)=C[C@H]2[C@@H]2C(C)(C)[C@]12OC(C)=O | 8.7 to 328 | 24.6 to 848 | – | – | – | – |
| CCCCCCCCCCCC(=O)O[C@@]12C[C@@H](C)[C@@]3(O)[C@@H](C=C(C=O)C[C@]4(O)C(=O)C(C)=C[C@@H]34)[C@@H]1C2(C)C | 8.7 to 328 | 24.6 to 848 | – | – | – | – |
| CCCCCCCCCCCC(=O)O[C@@]12C[C@@H](C)[C@@]3(O)[C@@H](C=C(CO)C[C@]4(O)C(=O)C(C)=C[C@@H]34)[C@@H]1C2(C)C | 8.7 to 328 | 24.6 to 848 | – | Active | – | – |
